Assay results reported in patent US20250228882A1, “ORALLY-BIOAVAILABLE NUCLEOSIDE ANALOGS” (Venatorx Pharmaceuticals, Inc., priority 2022, published 2025).
Where two headings read alike, the source gives them in different places.

What was measured:
[1] = Stability in human fasted-state simulated gastric fluid and fasted-state simulated intestinal fluid; assay type: physicochemical; conditions: timepoints 0-120 min
Method: The chemical stability of example compounds was determined using human fasted-state simulated gastric fluid, and fasted-state simulated intestinal fluid, prepared as follows.
• Weigh 1.0 g NaCl and dissolved it in 0.49 L water • Adjust pH value to 1.2, and adjust volume to 0.5 L in water • Filter the NaCl/HCl buffer through a 0.22 μm filter • Weigh 3.0 mg FaSSGF powder (Vendor: Biorelevant, catalog #FFF01), dissolve it in 50 mL NaCl/HCl buffer • Dissolve the FaSSGF powder in NaCl/HCl buffer and make up the volume to 50 mL • Store at 4° C. for future use.
• Weigh 0.695 g NaOH, 1.115 g maleic acid and 2.005 g NaCl, and dissolve in 0.49 L water • Adjusted the pH value to 6.8 and adjust volume to 0.5 L with water • Filter the maleic acid buffer through a 0.22 μm filter • Weigh 89.5 mg FaSSIF-V2 powder (Vendor: Biorelevant catalog #V2FAS01), dissolve in 50 mL maleic buffer • Dissolve the FaSSIF-V2 powder in maleic buffer and make up the volume to 50 mL • Store at 4° C. for future use.
Briefly, test compounds were prepared as 50 μM working solutions in DMSO, and 2 μL test compound working solution was added to 98 μL of each buffer respectively in six tubes (for six timepoints, 0, 5, 15, 30, 60, and 120 min) and gently mixed. At each corresponding timepoint, the reaction was stopped by addition of 300 μL of quenching solution (methanol solution of 5 ng/mL terfenadine and 10 ng/mL of tolbutamide). Each tube was vortexed for 1 min, centrifuged at 4,000 rpm at 4° C. for 15 min, then 200 μL of supernatant was removed. The half-life of each example compound was determined using LC-MS/MS analysis, using the internal standards present in the quenching solution.

[2] = Bidirectional Caco-2 permeability assay; assay type: in vitro ADME; conditions: human
In short: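 Caco-2 monolayers (passage 39, 19-day culture, TEER >600 Ohms/cm^2) dosed A→B and B→A in duplicate, 90 min at 37 °C without shaking. Donor and receiver samples at 10 and 90 min quantified by LC/MS/MS. Papp (cm/s), efflux ratio and recovery calculated; ER >2 flags potential efflux substrate.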

[3] = fasted-state simulated gastric fluid (FaSSGF), human fasted-state simulated gastric fluid, pH 1.2, LC-MS/MS, read-out: FaSSGF t1/2
[4] = human fasted-state simulated intestinal fluid (FaSSIF-V2), pH 6.8, LC-MS/MS, read-out: FaSSIF t1/2

SMILES: CCCC(=O)Nc1ncnn2c([C@]3(C#N)O[C@H](COC(=O)CC4CCCCC4)[C@@H](OC(=O)[C@@H](N)C(C)(C)C)[C@H]3O)ccc12 [Compound 1, (2R,3S,4R,5R)-5-(4-butyramidopyrrolo[2,1-f][1,2,4]triazin-7-yl)-5-cyano-2-((2-cyclohexylacetoxy)methyl)-4-hydroxytetrahydrofuran-3-yl (S)-2-amino-3,3-dimethylbutanoate]
- half-life at 1 µM [1, 3]: 1.61 h
- half-life at 1 µM [1, 4]: > 6.22 h
- Papp A→B at 90 min ([2]; Caco-2): 6.8 ×10⁻⁶ cm/s
- Papp B→A at 90 min ([2]; Caco-2): 8.72 ×10⁻⁶ cm/s
- efflux ratio at 90 min ([2]; Caco-2): 1.28

SMILES: CC(C)(C)[C@@H](N)C(=O)OC[C@H]1O[C@@](C#N)(c2ccc3c(N)ncnn23)[C@H](O)[C@@H]1OC(=O)CC1CCCCC1 [Compound 37, ((2R,3S,4R,5R)-5-(4-aminopyrrolo[2,1-f][1,2,4]triazin-7-yl)-5-cyano-3-(2-cyclohexylacetoxy)-4-hydroxytetrahydrofuran-2-yl)methyl (R)-2-amino-3,3-dimethylbutanoate]
- half-life at 1 µM [1, 3]: > 6.21 h
- half-life at 1 µM [1, 4]: > 6.21 h
- efflux ratio at 90 min ([2]; Caco-2): 2.95

SMILES: COC(C)(C)C(=O)Nc1ncnn2c([C@]3(C#N)O[C@H](COC(=O)CC4CCCCC4)[C@@H](OC(=O)[C@@H](N)C(C)(C)C)[C@H]3O)ccc12 [Compound 3, (2R,3S,4R,5R)-5-cyano-2-((2-cyclohexylacetoxy)methyl)-4-hydroxy-5-(4-(2-methoxy-2-methylpropanamido)pyrrolo[2,1-f][1,2,4]triazin-7-yl)tetrahydrofuran-3-yl (S)-2-amino-3,3-dimethylbutanoate]
- half-life at 1 µM [1, 3]: 0.347 h
- half-life at 1 µM [1, 4]: > 6.22 h
- Papp A→B at 90 min ([2]; Caco-2): 8.49 ×10⁻⁶ cm/s
- Papp B→A at 90 min ([2]; Caco-2): 9.3 ×10⁻⁶ cm/s
- efflux ratio at 90 min ([2]; Caco-2): 1.1

SMILES: CCC(CC)C(=O)Nc1ncnn2c([C@]3(C#N)O[C@H](COC(=O)CC4CCCCC4)[C@@H](OC(=O)[C@@H](N)C(C)(C)C)[C@H]3O)ccc12 [Compound 2, (2R,3S,4R,5R)-5-cyano-2-((2-cyclohexylacetoxy)methyl)-5-(4-(2-ethylbutanamido)pyrrolo[2,1-f][1,2,4]triazin-7-yl)-4-hydroxytetrahydrofuran-3-yl (S)-2-amino-3,3-dimethylbutanoate]
- half-life at 1 µM [1, 3]: > 6.22 h
- half-life at 1 µM [1, 4]: > 6.22 h
- Papp A→B at 90 min ([2]; Caco-2): 4.08 ×10⁻⁶ cm/s
- Papp B→A at 90 min ([2]; Caco-2): 6.13 ×10⁻⁶ cm/s
- efflux ratio at 90 min ([2]; Caco-2): 1.5

SMILES: CC(C)(C)[C@H](N)C(=O)OC[C@H]1O[C@@](C#N)(c2ccc3c(N)ncnn23)[C@H](O)[C@@H]1OC(=O)CC1CCCCC1 [Compound 32, ((2R,3S,4R,5R)-5-(4-aminopyrrolo[2,1-f][1,2,4]triazin-7-yl)-5-cyano-3-(2-cyclohexylacetoxy)-4-hydroxytetrahydrofuran-2-yl)methyl (S)-2-amino-3,3-dimethylbutanoate]
- Papp A→B at 90 min ([2]; Caco-2): 15.4 ×10⁻⁶ cm/s
- Papp B→A at 90 min ([2]; Caco-2): 20.7 ×10⁻⁶ cm/s
- efflux ratio at 90 min ([2]; Caco-2): 1.34

SMILES: CCOC(C)(C)C(=O)Nc1ncnn2c([C@]3(C#N)O[C@H](COC(=O)CC4CCCCC4)[C@@H](OC(=O)[C@@H](N)C(C)(C)C)[C@H]3O)ccc12 [Compound 7, (2R,3S,4R,5R)-5-cyano-2-((2-cyclohexylacetoxy)methyl)-5-(4-(2-ethoxy-2-methylpropanamido)pyrrolo[2,1-f][1,2,4]triazin-7-yl)-4-hydroxytetrahydrofuran-3-yl (S)-2-amino-3,3-dimethylbutanoate]
- Papp A→B at 90 min ([2]; Caco-2): 7.82 ×10⁻⁶ cm/s
- Papp B→A at 90 min ([2]; Caco-2): 8.41 ×10⁻⁶ cm/s
- efflux ratio at 90 min ([2]; Caco-2): 1.07

SMILES: CCCCOC(=O)Nc1ncnn2c([C@]3(C#N)O[C@H](COC(=O)CC4CCCCCC4)[C@@H](OC(=O)[C@@H](N)C(C)(C)C)[C@H]3O)ccc12 [Compound 65, (2R,3S,4R,5R)-5-(4-((butoxycarbonyl)amino)pyrrolo[2,1-f][1,2,4]triazin-7-yl)-5-cyano-2-((2-cycloheptylacetoxy)methyl)-4-hydroxytetrahydrofuran-3-yl (S)-2-amino-3,3-dimethylbutanoate]
- Papp A→B at 90 min ([2]; Caco-2): 0.79 ×10⁻⁶ cm/s
- Papp B→A at 90 min ([2]; Caco-2): 0.5 ×10⁻⁶ cm/s
- efflux ratio at 90 min ([2]; Caco-2): 0.62

SMILES: CC(C)[C@H](C)C(=O)Nc1ncnn2c([C@]3(C#N)O[C@H](COC(=O)Cc4ccccc4)[C@@H](OC(=O)[C@@H](N)C(C)(C)C)[C@H]3O)ccc12 [Compound 22, (2R,3S,4R,5R)-5-cyano-5-(4-((S)-2,3-dimethylbutanamido)pyrrolo[2,1-f][1,2,4]triazin-7-yl)-4-hydroxy-2-((2-phenylacetoxy)methyl)tetrahydrofuran-3-yl (S)-2-amino-3,3-dimethylbutanoate]
- Papp A→B at 90 min ([2]; Caco-2 monolayer, apical to basolateral, 90-minute incubation, read-out: Papp, A-B): 2.79 ×10⁻⁶ cm/s
- Papp B→A at 90 min ([2]; Caco-2 monolayer, basolateral to apical, 90-minute incubation, read-out: Papp, B-A): 6.1 ×10⁻⁶ cm/s
- efflux ratio at 90 min ([2]; Caco-2 monolayer, ER>2 indicates potential efflux substrate, read-out: ER (efflux ratio)): 2.19
